Results taken from ChEMBL document CHEMBL1141366, “Isolation of quinic acid derivatives and flavonoids from the aerial parts of Lactuca indica L. and their hepatoprotective activity in vitro” (Bioorg Med Chem Lett, 2007).
Activity calls are given as the source filed them. No cut-off for these calls is given here.

Tests used:
[1] = tested on: Hepatitis B virus; test: Antiviral activity against hepatitis B virus assessed as inhibition of viral particle production; type: functional, organism-based
[2] = tested on: Hepatitis B virus; test: Hepatoprotective activity against HBV in human HepG2.2.15 cells; type: functional, organism-based; details: HepG2 2.2.15

Compound: O=C(/C=C/c1ccc(O)cc1)O[C@@H]1C[C@](O)(C(=O)O)C[C@@H](O)[C@H]1O
- Activity [1]: Active
- Activity [2]: Active

Compound: O=C(/C=C/c1ccc(O)c(O)c1)O[C@@H]1C[C@@](O)(C(=O)O)C[C@@H](O)[C@@H]1O
- Activity [1]: Active
- Activity [2]: Active

Compound: O=C(/C=C/c1ccc(O)c(O)c1)O[C@@H]1C[C@](O)(C(=O)O)C[C@@H](OC(=O)/C=C/c2ccc(O)c(O)c2)[C@H]1O
- Activity [1]: Active
- Activity [2]: Active

Compound: O=c1c(O[C@@H]2O[C@H](CO)[C@@H](O)[C@H](O)[C@H]2O)c(-c2ccc(O)c(O)c2)oc2cc(O)cc(O)c12
- Activity [1]: Active
- Activity [2]: Active

Compound: O=C(/C=C/c1ccc(O)c(O)c1)O[C@@H]1[C@H](O)C[C@@](O)(C(=O)O)C[C@H]1OC(=O)/C=C/c1ccc(O)c(O)c1
- Activity [1]: Active
- Activity [2]: Active

Compound: O=C(/C=C/c1ccc(O)c(O)c1)O[C@H]1[C@H](O)C[C@](O)(C(=O)O)C[C@H]1OC(=O)/C=C/c1ccc(O)c(O)c1
- Activity [1]: Active
- Activity [2]: Active

Compound: O=C(/C=C/c1ccc(O)c(O)c1)O[C@@H]1C[C@](O)(C(=O)O)C[C@@H](O)[C@H]1O
- Activity [1]: Active
- Activity [2]: Active
